The numbers were not newly measured in patent publication US10568966B2, “Formulation for topical wound treatment” (AHMET KILIC, priority 2014, dated 2020), which cites them from elsewhere.

The conditions of data set [1]: CLP-Regulation (EC) No 1272/2008.

Turning to `C=CCCCCCCCCC(=O)NCCC[N+](C)(C)CC(=O)[O-]` [Rewoteric ® AM B U 185, Undecylenamidopropyl Betaine], the “LD50 Acute oral (Rat)” value is on record as greater than 2.000 mg/kg.

With “Cocamidopropyl Betaine [CRODATERIC ™ CAB 30-LQ-(RB)]”, in data set [1], the “GHS Classification” value is listed as “Eye Irrit. 2; H319”.

Regarding “Lauramidopropyl betaine [CRODATERIC ™ CAB 30-LQ-(TH)]”, the “LD50 Acute oral (Rat)” value was greater than 4.900 mg/kg.
